Patent US6566380B2, “Potassium channel inhibitors” (ICAgen, Inc., priority 2000, dated 2003)

Biological target: Kv1.5 potassium channel (Homo sapiens, UniProt P22460)
Assay: Electrophysiological studies: whole-cell patch clamp of Kv1.5 currents in CHO cells
Type: cell-based
Settings: Chinese hamster ovary cells stably expressing Kv1.5, whole-cell voltage clamp, read-out: Peak current inhibition at 0.1 μM (%)
Description: Electrophysiological recordings of potassium currents in Chinese hamster ovary cells stably expressing the gene construct for the Kv1.5 potassium channel subunit were performed using the whole cell configuration of the patch clamp technique (Hamill et al., Pflugers Archiv 391:85, 1981). Cell lines expressing Kv1.5 were prepared using standard techniques known to those skilled in the art. Cells were plated on glass coverslips at a density of 2×10^4 cells/coverslip and used within 24-48 hours. Solutions used for electrophysiological recordings were as follows. Extracellular bathing solutions typically contain (in mM) 132 NaCl, 5.4 KCl, 1.8 CaCl2, 0.8 MgCl2, 10 HEPES, 5 glucose at pH 7.3. […] The coverslips were placed in a small chamber (volume ˜200 μl) on the mechanical stage of an inverted microscope and perfused (approximately 2 ml/min) with extracellular recording solution. Drug was applied using a series of narrow-bore glass capillary tubes (inner diameter ˜100 μm) positioned approximately 200 μm from the cell.
As soon as the current recording were stable, a compound representative of the present invention was superfused over the cell until steady-state block was observed. Using this technique, the effects of the compound on peak and steady-state current were determined at progressively increasing compound concentrations.
The testing results of selected compounds from Table 2 using this assay and the techniques described above are reported in Table 3 as the percent inhibition of Kv1.5 potassium channel currents at a single concentration of 0.1 μM.

Kv1.5 potassium channel, sequence (P22460 whole entry): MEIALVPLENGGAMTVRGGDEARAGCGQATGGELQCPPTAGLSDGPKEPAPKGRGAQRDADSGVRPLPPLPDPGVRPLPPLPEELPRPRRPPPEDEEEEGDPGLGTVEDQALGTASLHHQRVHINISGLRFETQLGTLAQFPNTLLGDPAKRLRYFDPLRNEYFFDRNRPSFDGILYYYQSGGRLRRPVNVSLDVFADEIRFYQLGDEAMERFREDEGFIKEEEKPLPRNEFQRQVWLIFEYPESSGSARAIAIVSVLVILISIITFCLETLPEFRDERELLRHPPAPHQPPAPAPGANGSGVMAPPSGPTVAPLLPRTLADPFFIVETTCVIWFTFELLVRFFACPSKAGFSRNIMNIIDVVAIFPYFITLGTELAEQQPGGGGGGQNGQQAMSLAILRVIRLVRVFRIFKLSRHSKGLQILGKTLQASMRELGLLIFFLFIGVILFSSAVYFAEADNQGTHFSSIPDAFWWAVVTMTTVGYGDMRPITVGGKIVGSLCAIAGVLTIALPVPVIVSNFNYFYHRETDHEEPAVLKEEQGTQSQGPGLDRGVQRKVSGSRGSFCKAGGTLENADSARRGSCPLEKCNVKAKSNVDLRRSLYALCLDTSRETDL

inhibition at 0.1 µM	Compound
30%	C[C@@H](CC(=O)N(Cc1nccn1C)c1ccc2c(c1)[C@@H](NS(=O)(=O)c1cccc(Cl)c1)CCC2)c1ccccc1 [Example 6]
53%	C[C@@H](CC(=O)N(Cc1nccn1C)c1ccc2c(c1)[C@@H](NS(=O)(=O)c1ccc(F)cc1)CCC2)c1ccccc1 [Example 9]
86%	C[C@H](CC(=O)N(Cc1nccn1C)c1ccc2c(c1)[C@@H](NS(=O)(=O)c1cccc(Cl)c1)CCC2)c1ccccc1 [Example 2]
48%	Cc1cccc(CN(C(=O)C[C@@H](C)c2ccccc2)c2ccc3c(c2)[C@@H](NS(=O)(=O)c2ccc(F)c(Cl)c2)CCC3)n1 [Example 24]
42%	CC(CC(=O)N(Cc1nccn1C)c1ccc2c(c1)C(NS(=O)(=O)c1ccc(F)cc1)CCC2)c1ccccc1 (centres unmarked) [Example 1]
76%	C[C@@H](CC(=O)N(Cc1nccn1C)c1ccc2c(c1)[C@H](NS(=O)(=O)c1ccccc1)CCC2)c1ccccc1 [Example 11]
84%	C[C@H](CC(=O)N(Cc1nccn1C)c1ccc2c(c1)[C@@H](NS(=O)(=O)c1ccc(F)c(Cl)c1)CCC2)c1ccccc1 [Example 3]
58%	Cc1ncc(CN(C(=O)C[C@@H](C)c2ccccc2)c2ccc3c(c2)[C@@H](NS(=O)(=O)c2ccccc2)CCC3)n1C(C)C [Example 21]
53%	C[C@@H](CC(=O)N(Cc1nccn1C)c1ccc2c(c1)[C@H](NS(=O)(=O)c1cccs1)CCC2)c1ccccc1 [Example 19]
72%	COc1ccc(S(=O)(=O)N[C@H]2CCCc3ccc(N(Cc4nccn4C)C(=O)C[C@@H](C)c4ccccc4)cc32)cc1 [Example 18]
52%	Cc1ncc(CN(C(=O)C[C@@H](C)c2ccccc2)c2ccc3c(c2)[C@@H](NS(=O)(=O)c2cccc(F)c2)CCC3)n1C(C)C [Example 20]
84%	C[C@@H](CC(=O)N(Cc1nccn1C)c1ccc2c(c1)[C@H](NS(=O)(=O)c1cccc(Cl)c1)CCC2)c1ccccc1 [Example 17]
26%	Cc1cccc(CN(C(=O)C[C@H](C)c2ccccc2)c2ccc3c(c2)[C@H](NS(=O)(=O)c2ccccc2)CCC3)n1 [Example 25]
68%	C[C@H](CC(=O)N(Cc1nccn1C)c1ccc2c(c1)[C@@H](NS(=O)(=O)c1cccc(F)c1)CCC2)c1ccccc1 [Example 12]
86%	C[C@H](CC(=O)N(Cc1nccn1C)c1ccc2c(c1)[C@@H](NS(=O)(=O)c1ccccc1)CCC2)c1ccccc1 [Example 4]
75%	Cc1cccc(CN(C(=O)C[C@@H](C)c2ccccc2)c2ccc3c(c2)[C@@H](NS(=O)(=O)c2ccccc2)CCC3)n1 [Example 23]
88%	C[C@@H](CC(=O)N(Cc1nccn1C)c1ccc2c(c1)[C@H](NS(=O)(=O)c1cccc(F)c1)CCC2)c1ccccc1 [Example 16]
45%	C[C@@H](CC(=O)N(Cc1nccn1C)c1ccc2c(c1)[C@@H](NS(=O)(=O)c1ccccc1)CCC2)c1ccccc1 [Example 5]
52%	C[C@@H](CC(=O)N(Cc1nccn1C)c1ccc2c(c1)[C@H](NS(=O)(=O)c1cccc(F)c1)CCC2)c1ccc(F)cc1 [Example 26]

Same assay, conditions: Chinese hamster ovary cells stably expressing Kv1.5, whole-cell voltage clamp, read-out: Steady-state Current Inhibition at 0.1 μM (%)

inhibition at 0.1 µM	Compound
81%	C[C@@H](CC(=O)N(Cc1nccn1C)c1ccc2c(c1)[C@@H](NS(=O)(=O)c1cccc(Cl)c1)CCC2)c1ccccc1 [Example 6]
61%	C[C@@H](CC(=O)N(Cc1nccn1C)c1ccc2c(c1)[C@@H](NS(=O)(=O)c1ccc(F)cc1)CCC2)c1ccccc1 [Example 9]
96%	C[C@H](CC(=O)N(Cc1nccn1C)c1ccc2c(c1)[C@@H](NS(=O)(=O)c1cccc(Cl)c1)CCC2)c1ccccc1 [Example 2]
65%	Cc1cccc(CN(C(=O)C[C@@H](C)c2ccccc2)c2ccc3c(c2)[C@@H](NS(=O)(=O)c2ccc(F)c(Cl)c2)CCC3)n1 [Example 24]
67%	CC(CC(=O)N(Cc1nccn1C)c1ccc2c(c1)C(NS(=O)(=O)c1ccc(F)cc1)CCC2)c1ccccc1 (centres unmarked) [Example 1]
91%	C[C@@H](CC(=O)N(Cc1nccn1C)c1ccc2c(c1)[C@H](NS(=O)(=O)c1ccccc1)CCC2)c1ccccc1 [Example 11]
93%	C[C@H](CC(=O)N(Cc1nccn1C)c1ccc2c(c1)[C@@H](NS(=O)(=O)c1ccc(F)c(Cl)c1)CCC2)c1ccccc1 [Example 3]
67%	Cc1ncc(CN(C(=O)C[C@@H](C)c2ccccc2)c2ccc3c(c2)[C@@H](NS(=O)(=O)c2ccccc2)CCC3)n1C(C)C [Example 21]
79%	C[C@@H](CC(=O)N(Cc1nccn1C)c1ccc2c(c1)[C@H](NS(=O)(=O)c1cccs1)CCC2)c1ccccc1 [Example 19]
84%	COc1ccc(S(=O)(=O)N[C@H]2CCCc3ccc(N(Cc4nccn4C)C(=O)C[C@@H](C)c4ccccc4)cc32)cc1 [Example 18]
64%	Cc1ncc(CN(C(=O)C[C@@H](C)c2ccccc2)c2ccc3c(c2)[C@@H](NS(=O)(=O)c2cccc(F)c2)CCC3)n1C(C)C [Example 20]
97%	C[C@@H](CC(=O)N(Cc1nccn1C)c1ccc2c(c1)[C@H](NS(=O)(=O)c1cccc(Cl)c1)CCC2)c1ccccc1 [Example 17]
50%	Cc1cccc(CN(C(=O)C[C@H](C)c2ccccc2)c2ccc3c(c2)[C@H](NS(=O)(=O)c2ccccc2)CCC3)n1 [Example 25]
85%	C[C@H](CC(=O)N(Cc1nccn1C)c1ccc2c(c1)[C@@H](NS(=O)(=O)c1cccc(F)c1)CCC2)c1ccccc1 [Example 12]
89%	C[C@H](CC(=O)N(Cc1nccn1C)c1ccc2c(c1)[C@@H](NS(=O)(=O)c1ccccc1)CCC2)c1ccccc1 [Example 4]
90%	Cc1cccc(CN(C(=O)C[C@@H](C)c2ccccc2)c2ccc3c(c2)[C@@H](NS(=O)(=O)c2ccccc2)CCC3)n1 [Example 23]
100%	C[C@@H](CC(=O)N(Cc1nccn1C)c1ccc2c(c1)[C@H](NS(=O)(=O)c1cccc(F)c1)CCC2)c1ccccc1 [Example 16]
78%	C[C@@H](CC(=O)N(Cc1nccn1C)c1ccc2c(c1)[C@@H](NS(=O)(=O)c1ccccc1)CCC2)c1ccccc1 [Example 5]
76%	C[C@@H](CC(=O)N(Cc1nccn1C)c1ccc2c(c1)[C@H](NS(=O)(=O)c1cccc(F)c1)CCC2)c1ccc(F)cc1 [Example 26]
